# Data taken from patent US9718828B2 (MERCK SHARP & DOHME CORP., priority 2011, dated 2017).
# Structures can show the parent of a compound that is named as a salt.
# Molecular target: Btk enzyme (His-Btk) (Homo sapiens (Human), UniProt Q06187)
# Test: Btk enzyme activity, IMAP fluorescence polarization assay (Assay Method A)
# Conditions: not given
# Btk enzyme (His-Btk), sequence (Q06187 whole entry): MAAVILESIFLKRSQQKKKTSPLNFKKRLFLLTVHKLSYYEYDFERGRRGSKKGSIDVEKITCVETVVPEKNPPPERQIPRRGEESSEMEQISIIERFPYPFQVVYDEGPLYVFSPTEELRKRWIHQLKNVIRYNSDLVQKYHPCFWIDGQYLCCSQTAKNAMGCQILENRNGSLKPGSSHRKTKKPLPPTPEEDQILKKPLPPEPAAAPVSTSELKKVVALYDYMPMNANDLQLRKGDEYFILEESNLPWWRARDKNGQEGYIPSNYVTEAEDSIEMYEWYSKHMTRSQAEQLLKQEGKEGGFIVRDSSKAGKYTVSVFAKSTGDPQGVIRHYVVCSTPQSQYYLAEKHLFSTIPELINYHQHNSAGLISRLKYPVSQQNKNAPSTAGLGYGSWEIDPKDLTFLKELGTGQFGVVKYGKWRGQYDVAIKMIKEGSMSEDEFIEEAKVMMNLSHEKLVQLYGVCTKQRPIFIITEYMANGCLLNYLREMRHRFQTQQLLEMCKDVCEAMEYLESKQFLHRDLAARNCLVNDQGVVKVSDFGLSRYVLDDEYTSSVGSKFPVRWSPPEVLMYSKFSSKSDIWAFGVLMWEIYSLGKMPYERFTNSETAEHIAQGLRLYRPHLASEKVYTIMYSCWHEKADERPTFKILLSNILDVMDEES
row,EC50 [nM],Structure (SMILES)
1,10 to 100,"CC1(C(=O)N2C[C@@H](O)C[C@@H](c3nc(-c4ccc(C(=O)Nc5cc(C(F)(F)F)ccn5)cc4)c4c(N)nccn34)C2)COC1 (relative stereo) [Example 179, 4-(8-amino-3-((cis)-5-hydroxy-1-(3-methyloxetane-3-carbonyl)piperidin-3-yl)imidazo[1,5-a]pyrazin-1-yl)-N-(4-(trifluoromethyl)pyridin-2-yl)benzamide]"
2,10 to 100,"COCCC(=O)N1CCC[C@@H](c2nc(-c3ccc(C(=O)Nc4ccccn4)cc3C)c3c(N)nccn23)C1 [Example 285, 4-(8-amino-3-((R)-1-(3-methoxypropanoyl)piperidin-3-yl)imidazo[1,5-a]pyrazin-1-yl)-3-methyl-N-(pyridin-2-yl)benzamide, TFA salt]"
3,< 10,"CC(C)(C#N)C(=O)N[C@@H]1CCC[C@@H](c2nc(-c3ccc(C(=O)Nc4cc(C(F)(F)F)ccn4)cc3)c3c(N)nccn23)C1 (relative stereo) [Example 162, 4-(8-amino-3-((trans)-3-(2-cyano-2-methylpropanamido)-cyclohexyl)imidazo[1,5-a]pyrazin-1-yl)-N-(4-(trifluoromethyl)pyridin-2-yl)benzamide]"
4,10 to 100,"C[C@@H]1CC[C@@H](c2nc(-c3ccc(C(=O)Nc4cc(C(F)(F)F)ccn4)cc3)c3c(N)nccn23)CN1C(=O)C1CC1 (relative stereo) [Example 188, 4-(8-amino-3-((trans)-1-(cyclopropanecarbonyl)-6-methylpiperidin-3-yl)imidazo[1,5-a]pyrazin-1-yl)-N-(4-(trifluoromethyl)pyridin-2-yl)benzamide, TFA salt]"
5,10 to 100,"COC(=O)c1cnc(N)c2c(-c3ccc(C(=O)Nc4cc(C(F)(F)F)ccn4)cc3)nc(C)n12 [Example 312, methyl 8-amino-3-methyl-1-(4-(4-(trifluoromethyl)pyridin-2-ylcarbamoyl)phenyl)imidazo[1,5-a]pyrazine-5-carboxylate]"

# Continued, compound first:
row,Structure (SMILES),EC50 [nM]
1,"Nc1nccn2c1c(-c1ccc(C(=O)Nc3cc(N4CCCC4)ccn3)cc1)nc2[C@H]1CC[C@H](O)CC1 [Example 21, 4-(8-amino-3-((trans)-4-hydroxycyclohexyl)imidazo[1,5-a]pyrazin-1-yl)-N-(4-(pyrrolidin-1-yl)pyridin-2-yl)benzamide]",10 to 100
2,"Nc1nccn2c([C@@H]3CCCN(C(=O)C(=O)c4ccco4)C3)nc(-c3ccc(C(=O)Nc4cc(C5CC5)ccn4)cc3)c12 [Example 123, (R)-4-(8-amino-3-(1-(2-(furan-2-yl)-2-oxoacetyl)piperidin-3-yl)imidazo[1,5-a]pyrazin-1-yl)-N-(4-cyclopropylpyridin-2-yl)benzamide]",10 to 100
3,"NCCCCC(=O)N1CCC[C@@H](c2nc(-c3ccc(C(=O)Nc4ccccn4)cc3)c3c(N)nccn23)C1 [Example 54, (R)-4-(8-amino-3-(1-(5-aminopentanoyl)piperidin-3-yl)imidazo[1,5-a]pyrazin-1-yl)-N-(pyridin-2-yl)benzamide]",10 to 100
4,"Nc1nccn2c(C3CC34CCN(C(=O)CO)CC4)nc(-c3ccc(C(=O)Nc4ccccn4)cc3)c12 (stereo not drawn) [Example 152, 4-(8-amino-3-(6-(2-hydroxyacetyl)-6-azaspiro[2.5]octan-1-yl)imidazo[1,5-a]pyrazin-1-yl)-N-(pyridin-2-yl)benzamide]",100 to 1000
5,"CN(C)C1(C(=O)N2CCC[C@@H](c3nc(-c4ccc(C(=O)Nc5cc(C(F)(F)F)ccn5)cc4)c4c(N)nccn34)C2)CC1 [Example 88, (R)-4-(8-amino-3-(1-(1-(dimethylamino)cyclopropane-carbonyl)piperidin-3 yl)imidazo[1,5-a]pyrazin-1-yl)-N-(4-(trifluoromethyl)pyridin-2-yl)benzamide]",10 to 100
6,"Nc1nccn2c([C@@H]3CCCN(CCC(F)(F)F)C3)nc(-c3ccc(C(=O)Nc4ccccn4)cc3)c12 [Example 136, (R)-4-(8-amino-3-(1-(3,3,3-trifluoropropyl)piperidin-3-yl)imidazo[1,5-a]pyrazin-1-yl)-N-(pyridin-2-yl)benzamide TFA salt]",10 to 100
7,"Nc1nccn2c([C@@H]3CCCN(C(=O)[C@H]4CC[C@H](N)CC4)C3)nc(-c3ccc(C(=O)Nc4ccccn4)cc3)c12 [Example 55, 4-(8-amino-3-((R)-1-((trans)-4-aminocyclohexanecarbonyl)piperidin-3-yl)imidazo[1,5-a]pyrazin-1-yl)-N-(pyridin-2-yl)benzamide, TFA salt]",10 to 100

# Same assay, conditions: read-out: EC50 Btk activity values - Assay Method A; IMAP-FP, 60 min pre-incubation, 5 μM ATP; class 100-1000 is given as ≧100 nM-<1 μM
row,EC50 [nM],Structure (SMILES)
1,< 10,"COCCNC(=O)C1CCCN(c2nc(-c3ccc(C(=O)Nc4cc(C(F)(F)F)ccn4)cc3)c3c(N)nccn23)C1 (stereo not drawn) [Example 232, 1-(8-amino-1-(4-(4-(trifluoromethyl)pyridin-2-ylcarbamoyl)phenyl)imidazo[1,5-a]pyrazin-3-yl)-N-(2-methoxyethyl)piperidine-3-carboxamide, TFA salt]"
2,< 10,"CCNC(=O)N1CCC[C@@H](c2nc(-c3ccc(C(=O)Nc4cc(C(F)(F)F)ccn4)cc3)c3c(N)ncnn23)C1 [Example 256, (R)-3-(4-amino-5-(4-(4-(trifluoromethyl)pyridin-2-ylcarbamoyl)phenyl)imidazo[1,5-f][1,2,4]triazin-7-yl)-N-ethylpiperidine-1-carboxamide]"
3,< 10,"Nc1ncnc2c1c(-c1ccc(C(=O)Nc3cc(C(F)(F)F)ccn3)cc1)nn2[C@@H]1CCCN(C(=O)C2CC2)C1 [Example 269, (R)-4-(4-amino-1-(1-(cyclopropanecarbonyl)piperidin-3-yl)-1H-pyrazolo[3,4-d]pyrimidin-3-yl)-N-(4-(trifluoromethyl)pyridin-2-yl)benzamide]"
4,< 10,"CCC(=O)N1CCSC(c2nc(-c3ccc(C(=O)Nc4cc(C(F)(F)F)ccn4)cc3)c3c(N)nccn23)C1 (stereo not drawn) [Example 172, 4-(8-amino-3-(4-propionylthiomorpholin-2-yl)imidazo[1,5-a]pyrazin-1-yl)-N-(4-(trifluoromethyl)pyridin-2-yl)benzamide]"
5,< 10,"CCNC(=O)N1C[C@H](c2nc(-c3ccc(C(=O)Nc4cc(C(F)(F)F)ccn4)cc3)c3c(N)nccn23)CC[C@H]1C (relative stereo) [Example 186, (trans)-5-(8-amino-1-(4-(4-(trifluoromethyl)pyridin-2-ylcarbamoyl)phenyl)imidazo [1,5-a]pyrazin-3-yl)-N-ethyl-2-methylpiperidine-1-carboxamide, TFA salt]"
6,< 10,"CC1(C(=O)N2CCC[C@@H](c3nc(-c4ccc(C(=O)Nc5cc(C(F)(F)F)ccn5)cc4)c4c(N)ncc(CCc5ccccc5)n34)C2)COC1 [Example 319, (R)-4-(8-amino-3-(1-(3-methyloxetane-3-carbonyl)piperidin-3-yl)-5-phenethylimidazo[1,5-a]pyrazin-1-yl)-N-(4-(trifluoromethyl)pyridin-2-yl)benzamide]"
7,< 10,"Nc1nccn2c(N3CCCC(C(=O)N4CCOCC4)C3)nc(-c3ccc(C(=O)Nc4cc(C(F)(F)F)ccn4)cc3)c12 (stereo not drawn) [Example 234, 4-(8-amino-3-(3-(morpholine-4-carbonyl)piperidin-1-yl)imidazo[1,5-a]pyrazin-1-yl)-N-(4-(trifluoromethyl)pyridin-2-yl)benzamide, TFA salt]"
8,< 10,"CC1(C(=O)N2CCC[C@@H](c3nc(-c4ccc(C(=O)Nc5cc(C(F)(F)F)ccn5)cc4)c4c(N)ncc(C(=O)O)n34)C2)COC1 [Example 300, (R)-8-amino-3-(1-(3-methyloxetane-3-carbonyl)piperidin-3-yl)-1-(4-(4-(trifluoromethyl)pyridin-2-ylcarbamoyl)phenyl)imidazo[1,5-a]pyrazine-5-carboxylic acid]"
9,< 10,"CCC(=O)N[C@@H]1CCC[C@@H](c2nc(-c3ccc(C(=O)Nc4cc(C(F)(F)F)ccn4)cc3)c3c(N)nccn23)C1 (relative stereo) [Example 170, 4-(8-amino-3-((trans)-3-propionamidocyclohexyl)imidazo [1,5-a]pyrazin-1-yl)-N-(4-(trifluoromethyl)pyridin-2-yl)benzamide]"
10,< 10,"Nc1ncnn2c([C@@H]3CCCN(C(=O)C4CC(F)(F)C4)C3)nc(-c3ccc(C(=O)Nc4cc(C(F)(F)F)ccn4)cc3)c12 [Example 260, (R)-4-(4-amino-7-(1-(3,3-difluorocyclobutanecarbonyl)piperidin-3-yl)imidazo[1,5-f][1,2,4]triazin-5-yl)-N-(4-(trifluoromethyl)pyridin-2-yl)benzamide]"
11,< 10,"COCCC(=O)N1CCC[C@@H](c2nc(-c3ccc(C(=O)Nc4ccccn4)cc3F)c3c(N)nccn23)C1 [Example 284, 4-(8-amino-3-((R)-1-(3-methoxypropanoyl)piperidin-3-yl)imidazo[1,5-a]pyrazin-1-yl)-3-fluoro-N-(pyridin-2-yl)benzamide, TFA salt]"

# Further lines, the compound ahead of its results:
row,Structure (SMILES),EC50 [nM]
1,"CCCc1ccnc(NC(=O)c2ccc(-c3nc([C@H]4CC[C@H](O)CC4)n4ccnc(N)c34)cc2F)c1 [Example 13, 4-(8-amino-3-((trans)-4-hydroxycyclohexyl)imidazo[1,5-a]pyrazin-1-yl)-2-fluoro-N-(4-propylpyridin-2-yl)benzamide]",< 10
2,"Nc1nccn2c([C@@H]3CCCN(CC(O)CO)C3)nc(-c3ccc(C(=O)Nc4cc(C(F)(F)F)ccn4)cc3)c12 (stereo partly drawn) [Example 139, 4-(8-amino-3-((3R)-1-(2,3-dihydroxypropyl)piperidin-3-yl)imidazo[1,5-a]pyrazin-1-yl)-N-(4-(trifluoromethyl)pyridin-2-yl)benzamide, TFA salt]",< 10
3,"Nc1nccn2c([C@@H]3CCCN(C(=O)CN4CCOC4=O)C3)nc(-c3ccc(C(=O)Nc4cc(C5CC5)ccn4)cc3)c12 [Example 110, (R)-4-(8-amino-3-(1-(2-(2-oxooxazolidin-3-yl)acetyl)piperidin-3-yl)imidazo[1,5-a]pyrazin-1-yl)-N-(4-cyclopropylpyridin-2-yl)benzamide]",< 10
4,"N#Cc1ccc(C(=O)N2CCC[C@@H](c3nc(-c4ccc(C(=O)Nc5cc(C6CC6)ccn5)cc4)c4c(N)nccn34)C2)cn1 [Example 117, (R)-4-(8-amino-3-(1-(6-cyanonicotinoyl)piperidin-3-yl)imidazo[1,5-a]pyrazin-1-yl)-N-(4-cyclopropylpyridin-2-yl)benzamide .]",< 10
